The structures appear in SMILES notation. pIC50: −log10 of the molar value. Inconclusive results are not listed. Activity calls are given as the source filed them. The rule behind the calls is not given here.

The values below come from PubChem BioAssay AID488890 (Southern Research Specialized Biocontainment Screening …, 2010).

The test system of the assay is Mycobacterium tuberculosis non-replicating, growth inhibition. Nature of the assay: growth inhibition of non-replicating M. tuberculosis (AID 488890).
Regarding `O=C(Nc1cccc2ccccc12)c1ccc([N+](=O)[O-])o1`, the pIC50 is 5.68.

With `O=C(Nc1ccc(S(=O)(=O)N2CCOCC2)cc1)c1ccc([N+](=O)[O-])o1`, the pIC50 is 5.28.

Consider `COc1ccc(OC(=O)C(C)N2C(=O)c3ccccc3C2=O)cc1` (centres undefined), for which the IC50 was 12.3 µM (inactive).

Regarding `Oc1ccccc1CN1CCCC(N2CCN(c3cccc(C(F)(F)F)c3)CC2)C1` (centres undefined), the IC50 was 21.5 µM (inactive).

For the molecule `COC(=O)CN(C#N)c1nc(N(C)C)nc(N(C)C)n1`, the IC50 is 16.5 µM (inactive).

As to `Cc1ccc(OC(=O)CCS(=O)(=O)c2ccc(C)cc2)cc1`, the IC50 was 11.8 µM (inactive).

Turning to `CC(C)=CCN1CCN(CCC2=C(C)CCCC2(C)C)CC1CCO` (centres undefined), the pIC50 was 5.12.

With `COc1ccc(C(=O)CCN2CCCCCC2)cc1`, the pIC50 is 5.69.

For `CCOc1ccc(-c2cc(CCCC(=O)NCCC(C)C)no2)cc1`, the IC50 is 18.2 µM (inactive).

As to `CN(C)Cc1ccccc1Sc1ccc(Br)cc1`, the IC50 is 27.7 µM (inactive).

Take `Cc1cnc(C(=O)NNC(=O)c2ccc(Br)cc2)cn1`: the pIC50 was 5.31.

Take `CCOC(=O)COc1ccc(C(=O)Nc2cccc(Cl)c2C)cc1`: the pIC50 was 6.64.

As for `O=C(Nc1nnc(-c2ccc(Cl)cc2)o1)c1cccc(N2C(=O)CCC2=O)c1`, the IC50 is 22.3 µM (inactive).

`O=c1[nH]c(=O)n(Cc2ccccc2Cl)c(O)c1/C=C1/C=CC=N1`: the negative-log IC50 (pIC50) was 6.60.

For `COc1cccc(C(=O)OCC(=O)c2ccc(Br)s2)c1OC`, the pIC50 is 5.04.

For `O=C(Cc1ccc(Cl)cc1)OCC(=O)c1ccc[nH]1`, the pIC50 is 5.25.

`O=C(NNc1ccc([N+](=O)[O-])cc1)c1ccccc1Cl`: the pIC50 is 5.03.

As to `Cc1ccc(-c2nnc(NC(=O)c3ccco3)o2)c(C)c1`, the pIC50 is 5.16.

In the case of `O=C(N/N=C/c1ccccn1)c1cccc([N+](=O)[O-])c1`, the pIC50 is 5.41.

Turning to `COC(=O)COc1ccc2c(-c3ccc(OC)cc3)cc(=O)oc2c1`, the negative-log IC50 (pIC50) is 6.11.

Consider `Cc1[nH]n(-c2ccc(Cl)cc2)c(=O)c1N=Nc1cccnc1`, for which the pIC50 is 5.86.

Turning to `COc1ccccc1NC(=O)c1cnc(SC)nc1`, the IC50 is 22.3 µM (inactive).

Consider `Cc1ccc(NCCC(=O)c2cccs2)cc1`, for which the negative-log IC50 (pIC50) is 5.63.

`S=c1[nH]c2ccccc2o1`: the IC50 is 27.5 µM (inactive).

In the case of `O=C1OC(/C=C/c2ccccc2)=NC/1=C\c1cccnc1`, the IC50 is 13 µM (inactive).

On to `CC(=O)Oc1ccc(N(C(C)=O)S(=O)(=O)c2cccs2)c2ccccc12`, for which the IC50 was 11.6 µM (inactive).

For `N#Cc1ccc(CSc2nnc(-c3cccnc3)o2)cc1`, the IC50 was 11.5 µM (inactive).

Consider `Nc1nnnn1/N=C/C(Br)=C/c1ccccc1`, for which the IC50 is 13.5 µM (inactive).

Turning to `Cc1ccc(NC(=O)CC2SC3=NCCCN3C2=O)c(C)c1` (centres undefined), the IC50 was 18.8 µM (inactive).

As to `CCOc1cccc2cc(C(=O)NC(C)c3ccccc3)c(=N)oc12` (centres undefined), the IC50 was 32.9 µM (inactive).

With `COc1ccc(C2(O)CCN(CCCCOc3ccccc3)CC2)cc1`, the IC50 was 18.1 µM (inactive).

Take `O=C(OCn1nnc2ccccc2c1=O)c1ccc(N2CCOCC2)c([N+](=O)[O-])c1`: the IC50 is 22.8 µM (inactive).

For the molecule `O=c1[nH]c(O)c(/C=C2/C=CC(c3cc(Cl)ccc3Cl)=N2)c(=O)[nH]1`, the pIC50 was 6.47.

With `COC(=O)COc1ccc(S(=O)(=O)N2CCN(c3ccccc3F)CC2)cc1`, the IC50 is 27.9 µM (inactive).

As to `CCC(C)NCCOc1ccc(C(C)(C)c2ccccc2)cc1` (centres undefined), the IC50 was 10.4 µM (inactive).

With `O=C(O/N=C/c1ccc2c(c1)OCO2)c1ccc([N+](=O)[O-])cc1`, the IC50 is 11.6 µM (inactive).

In the case of `COc1ccccc1NC(=O)C(=O)/C=C(\O)c1ccccc1`, the IC50 is 15.4 µM (inactive).

With `O=c1oc2ccccc2c(Nc2ccccc2O)c1[N+](=O)[O-]`, the pIC50 is 5.07.

For the molecule `c1ccc(CNCCC(Cc2ccccc2)c2ccco2)cc1` (centres undefined), the IC50 was 21.6 µM (inactive).

In the case of `O=C(Cn1cc([N+](=O)[O-])nc1[N+](=O)[O-])N1CCN(c2ccccc2)CC1`, the IC50 was 12.8 µM (inactive).

As for `Cc1ccc(C(=O)Nc2nnc(-c3ccncc3)o2)cc1`, the IC50 was 23.3 µM (inactive).

Turning to `O=[N+]([O-])c1ccc2nc(SCc3cn4cc(Cl)ccc4n3)[nH]c2c1`, the pIC50 is 5.09.

Take `CCOC(=O)C(=NCCOC)NNc1cc(Cl)ccc1Cl`: the IC50 is 30.4 µM (inactive).

As to `c1ccc(Cc2nnc(-c3ccccc3)o2)cc1`, the negative-log IC50 (pIC50) is 6.72.

`O=C(OCCCOC(=O)c1ccc([N+](=O)[O-])o1)c1ccc([N+](=O)[O-])o1`: the pIC50 was 5.91.

For `N#Cc1cc(N)ccc1-n1cccc1`, the pIC50 was 5.21.

For `Cc1ccc(C(=O)N/N=C/c2ccc([N+](=O)[O-])s2)cc1`, the pIC50 is 5.67.

`O=C(O)c1ccccc1C(=O)NNc1ccc(F)cc1`: the IC50 was 12.4 µM (inactive).

Regarding `O=C(COC(=O)c1cc(Br)ccc1O)Nc1ccc2c(c1)OCO2`, the pIC50 was 5.11.

For the molecule `CCc1ccc(Cc2cnc(NC(=O)C3=NCCN3)s2)cc1`, the pIC50 is 5.55.

For the molecule `CCN(CC)c1ccc2c(c1)oc(=O)c1c(Cl)cc(=O)oc12`, the pIC50 is 5.43.

For `O=C(Nc1nc2c(F)cc(F)cc2s1)c1ccccn1`, the pIC50 was 5.67.

On to `O=C(NNC1=C(C(=O)C(F)(F)F)CCC1)c1ccccc1Cl`, for which the pIC50 was 5.88.

`COc1ccc(-c2nc3ccc(C)cc3c(=O)o2)cc1OC`: the pIC50 was 5.53.

For the molecule `O=C(Nc1nc(-c2ccccn2)cs1)c1ccc([N+](=O)[O-])o1`, the IC50 was 25.5 µM (inactive).

`CCOc1ccc(Cn2c(=O)oc3ccccc32)cc1`: the pIC50 was 6.08.

Turning to `CCc1cc(C(c2ccncc2)N2CCN(C)CC2)c(NC(=O)c2ccccc2)s1` (centres undefined), the IC50 was 10.6 µM (inactive).

For the molecule `O=C(COc1ccc(Cl)cc1)Nc1ccc(Cl)cn1`, the pIC50 is 5.18.

On to `COc1ccc(OCC(=O)NNC(=O)c2ccccn2)cc1`, for which the IC50 is 11.3 µM (inactive).

With `CCC(=O)N1CCN(c2cc3c(cc2F)c(=O)c(C(=O)O)cn3CC)CC1`, the pIC50 was 5.12.

In the case of `CCOC(=O)C1CCCN(Cc2nc(Cc3ccccc3Cl)no2)C1` (centres undefined), the IC50 is 27.1 µM (inactive).

Regarding `O=C(Nc1nccs1)c1ccccn1`, the IC50 was 14.5 µM (inactive).

As for `O=C(N/N=C/c1ccccn1)c1cc([N+](=O)[O-])cc([N+](=O)[O-])c1`, the pIC50 was 5.00.

For `O=C(Cc1c(F)cccc1Cl)Nc1ncc([N+](=O)[O-])s1`, the IC50 was 12.1 µM (inactive).

With `O=[N+]([O-])c1cc2oc3c(c2c(C=NCc2ccccc2)c1O)CCCC3`, the negative-log IC50 (pIC50) was 5.54.

In the case of `CC(=O)OCCNc1cc(SCc2ccco2)c2nonc2c1[N+](=O)[O-]`, the pIC50 is 5.52.

As to `Cc1ccc(NC(=O)c2ccc([N+](=O)[O-])o2)c(C)c1`, the pIC50 was 5.05.

On to `Cc1nc(/N=C(\N)NC(=O)NC2CCCCC2)nc2ccccc12`, for which the IC50 is 10.3 µM (inactive).

For `O=c1c2c([N+](=O)[O-])cc([N+](=O)[O-])cc2sn1-c1ccc(Br)cc1`, the IC50 was 18.5 µM (inactive).

Consider `NC(=O)c1ccc(-c2ccc(Br)cc2)o1`, for which the pIC50 was 5.71.

Regarding `O=C(Oc1cccc2cccnc12)c1cccc(-n2cnnn2)c1`, the IC50 was 22.9 µM (inactive).

In the case of `O=c1oc(-c2cccs2)nc2c1cnn2-c1ccccc1`, the pIC50 was 6.37.

Consider `CN1CCN(c2ccc(NC(=O)c3ccc(-c4ccc(Cl)cc4)o3)cc2)CC1`, for which the pIC50 is 5.29.

Turning to `CCOC(=O)Cn1cc(C#N)c2cccc(CC)c21`, the pIC50 is 5.04.

Regarding `CCOC(=O)COc1cc([N+](=O)[O-])cc2cccnc12`, the IC50 was 25.5 µM (inactive).

Turning to `Cc1ccc(C(=O)Nc2nccs2)cc1`, the IC50 is 19.8 µM (inactive).

Regarding `CC(=O)Oc1c(-c2ccc(Br)o2)oc2ccccc2c1=O`, the pIC50 was 5.54.

For the molecule `O=C(Nc1ncc([N+](=O)[O-])s1)c1ccc2c(c1)OCO2`, the pIC50 was 5.32.

Consider `O=C(c1cc([N+](=O)[O-])cc([N+](=O)[O-])c1)N(Cc1nnc(-c2ccccc2Cl)o1)C1CC1`, for which the pIC50 was 5.35.

`Nc1c(C(=O)NC2CCCCC2)nsc1C(=O)OCC(=O)NC1CCCCC1`: the pIC50 is 5.49.

Take `O=C(N/N=C\c1ccco1)c1cncc(Br)c1`: the IC50 was 38.1 µM (inactive).

For `Cc1cc(C)n(-c2nc(NCCN(C)C)c3c4c(sc3n2)CCCC4)n1`, the pIC50 was 5.02.

With `Cc1cc2nc(/N=C(\N)NC(=O)C(C)C)nc(C)c2cc1C`, the pIC50 was 5.51.

As for `O=C1C(Nc2ccccc2)=C/C(=N/S(=O)(=O)c2cccs2)c2ccccc21`, the IC50 is 12 µM (inactive).

Turning to `O=C(NCC1CCCCC1)c1ccc([N+](=O)[O-])cc1`, the pIC50 was 6.21.

Turning to `O=c1oc(/C=C/c2ccc([N+](=O)[O-])s2)nc2ccccc12`, the pIC50 is 5.07.

Regarding `COc1ccc(CCOC(=O)c2ccc(N)c([N+](=O)[O-])c2)cc1`, the IC50 is 12.3 µM (inactive).

For the molecule `CC(=O)c1ccc(NC(=O)C(Cc2ccccc2)n2cccc2)cc1` (centres undefined), the IC50 was 12.5 µM (inactive).

For the molecule `O=C(Nc1ccc(S(=O)(=O)N2CCOCC2)cc1)c1ccc([N+](=O)[O-])s1`, the pIC50 is 5.80.

Regarding `COc1ccc(C2=NC(=O)/C(=C\c3cc(OC)c(OC)c(OC)c3)O2)cc1`, the pIC50 is 5.47.

In the case of `CC(=O)Oc1ccc(N2C(=O)c3cccc4c([N+](=O)[O-])ccc(c34)C2=O)cc1`, the pIC50 was 6.43.

As for `Cc1nc([N+](=O)[O-])c(Br)n1Cc1ccccc1`, the IC50 is 14.1 µM (inactive).

Turning to `CC1C/C(=N/NC(=O)c2cccc(F)c2)c2ccc(O)cc2C1` (centres undefined), the IC50 was 14 µM (inactive).

`Cc1ccccc1OCC(O)Cn1c(=N)n(Cc2ccccc2)c2ccccc21` (centres undefined): the pIC50 is 5.12.

Turning to `O=C(c1ccc([N+](=O)[O-])o1)N1CCN(Cc2ccccc2)CC1`, the pIC50 is 5.55.

`O=C(OCc1ccccn1)c1ccc(COc2ccccc2Cl)o1`: the pIC50 is 5.50.

On to `O=C(Nc1nnc(COc2ccc(Cl)cc2)s1)c1ccco1`, for which the IC50 is 21.4 µM (inactive).

For the molecule `CCCC(O)(CCC)C(=O)NNc1ccc(C)cc1`, the pIC50 was 5.23.

Turning to `O=C(N/N=C/c1cccs1)c1cncc(Br)c1`, the pIC50 was 5.31.

What is called pIC50 is −log10 of the IC50, conventionally taken in molar units. Broadly, the IC50 is the midpoint of a concentration-inhibition curve.
